Results published in US12583851B2, “Heteroaryl-substituted pyrazine derivatives as pesticides” (Elanco Animal Health GmbH, priority 2019, dated 2026).

Experiments:
Format in all cases: in vivo
[1] = tested on: adult Blattella germanica strain PAULINIA; experiment: Blattella germanica test (BLTTGE surface treatment & contact assay); settings: surface concentration 20 mg/m^2, 30 minutes exposure, 24 hours after contact, read-out: mortality (efficacy)
Protocol: Blattella germanica Test (BLTTGE Surface Treatment & Contact Assay)
(§1) Solvent: Aceton+2000 ppm rapeseed oil methyl ester (RME)
(§2) In order to produce a sufficient, active ingredient containing solution it is necessary to solve the test compound in the solvent-mix (acetone at 2 mg/ml/RME 2000 ppm). This solution is pipetted onto a glazed tile and after evaporation of the acetone, adult animals of the species Blattella germanica strain PAULINIA are placed onto the dried surface. The exposure time is 30 minutes.
(§3) Mortality in percent (%) is determined 24 hours after contact of the insects to the treated surface. 100% mortality means that all tested insects are dead, whereas 0% means that no insect died.

[2] = tested on: adult mosquitoes Anopheles funestus strain FUMOZ-R; experiment: Anopheles funestus test (ANPHFU surface treatment & contact assay); settings: surface concentration 20 mg/m^2, 30 minutes exposure, 24 hours after contact, read-out: mortality (efficacy)
Protocol: Anopheles funestus Test (ANPHFU Surface Treatment & Contact Assay)
as §1
as §2, with “mosquitoes” for “animals”, “Anopheles funestus” for “Blattella germanica”, “FUMOZ-R (Hunt et al., Med. Vet. Entomol. 2005 Sep. 19(3): 271-275)” for “PAULINIA”
as §3

[3] = tested on: adult unfed cat fleas (Ctenocephalides felis); experiment: Ctenocephalides felis oral test; settings: 48 h, 100 ppm in citrated cattle blood, after 2 days
Method in brief: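 About 20 adult unfed cat fleas fed through parafilm on citrated cattle blood containing compound (from a DMSO concentrate). Blood held at 37° C, fleas at room temperature. Mortality in % scored after 2 days.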

[4] = tested on: adult brown dog ticks (Rhipicephalus sanguineus); experiment: Rhipicephalus sanguineus in-vitro contact test, adult brown dog ticks; settings: 48 h, 5 μg/cm^2 (=500 g/ha), after 48 hours, read-out: efficacy (ticks dead or moribund)
Method in brief: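 Acetone solution coated on glass tube inner walls (900 ppm, giving 5 μg/cm^2); after drying, 5–10 adult ticks added and kept 48 h at room temperature. Efficacy scored as percent dead or moribund, i.e., ticks unable to climb away on a 45–50 °C heating plate within 5 min.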

[5] = tested on: Rhipicephalus (Boophilus) microplus larvae (strain Parkhurst, resistant against synthetic pyrethroids); experiment: Rhipicephalus (Boophilus) microplus in-vitro contact test, larval cattle tick; settings: after 48 hours, read-out: efficacy (larvae dead or moribund)
Method in brief: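 Acetone solutions were coated onto glass tube walls (900 ppm gives 5 μg/cm²); after drying, 20–50 pyrethroid-resistant Parkhurst larvae added and held at 27 °C, 85% RH. At 48 h, efficacy as % larvae dead or moribund, judged by loss of negative geotaxis.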

[6] = tested on: adult cat fleas (Ctenocephalides felis); experiment: Ctenocephalides felis in-vitro contact test, adult cat flea; settings: 1 μg/cm^2 (=100 g/ha), after 48 hours, read-out: efficacy (fleas dead or moribund)
Method in brief: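 Acetone solution coated onto glass tube walls; 900 ppm gives 5 μg/cm². Once dry, 5–10 adult fleas per tube held at room temperature for 48 h. Efficacy (%) is the share of fleas dead or moribund, i.e. unable to climb away on a 45–50° C heating plate.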

[7] = tested on: adult engorged female ticks (Rhipicephalus microplus); experiment: Rhipicephalus (Boophilus) microplus injection test; settings: 168 h, 4 μg/animal, egg deposition after 7 days, read-out: efficacy (infertile eggs)
Method in brief: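 Efficacy is scored from egg fertility, with 100% meaning every egg infertile and 0% every egg fertile. Five engorged females per test received 1 μL DMSO solution abdominally. Eggs of unclear fertility were kept until hatching, about 42 days.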

[8] = tested on: adult mosquitoes Aedes aegypti strain MONHEIM; experiment: Aedes aegypti test (AEDSAE surface treatment & contact assay); settings: 24 hours after contact, read-out: mortality (efficacy)
Protocol: Aedes aegypti Test (AEDSAE Surface Treatment & Contact Assay)
as §1
as §2, with “mosquitoes” for “animals”, “Aedes aegypti” for “Blattella germanica”, “MONHEIM” for “PAULINIA”
as §3

[9] = tested on: adult flies Musca domestica strain WHO-N; experiment: Musca domestica test (MUSCDO surface treatment & contact assay); settings: surface concentration 4 mg/m^2, 30 minutes exposure, 24 hours after contact, read-out: mortality (efficacy)
Protocol: Musca domestica Test (MUSCDO Surface Treatment & Contact Assay)
as §1
as §2, with “flies” for “animals”, “Musca domestica” for “Blattella germanica”, “WHO-N” for “PAULINIA”
as §3

## CC(NC(=O)c1cc(F)cc(C(F)(F)F)c1)c1nccnc1-c1ncccn1 (racemic) [Example I-7, (rac)-3-Fluoro-N-(1-(3-(pyrimidin-2-yl)pyrazin-2-yl)ethyl)-5-(trifluoromethyl)benzamide]
[1]
  mortality at 20 mg/m2: 80 to 100%
[2]
  mortality at 20 mg/m2: 80 to 100%
[3]
  mortality at 100 ppm: 100%
[4]
  pest or weed control at 5 µg/cm2, 500 g/ha: 100%
[5]; 1 μg/cm^2 (=100 g/ha)
  pest or weed control at 1 µg/cm2, 100 g/ha: 100%
[5]; 5 μg/cm^2 (=500 g/ha)
  pest or weed control at 5 µg/cm2, 500 g/ha: 100%
[6]
  pest or weed control at 1 µg/cm2, 100 g/ha: 90%
[7]
  pest or weed control at 0.004 mg: 100%
[8]; surface concentration 4 mg/m^2, 30 minutes exposure
  mortality at 4 mg/m2: 80 to 100%
[8]; surface concentration 20 mg/m^2, 30 minutes exposure
  mortality at 20 mg/m2: 80 to 100%
[9]
  mortality at 4 mg/m2: 80 to 100%
